Read-outs that look alike come from different tables or passages of the source.
Assays:
human tumor cells = conditions: growth of human tumor cells; cited from earlier work
[1] = biological target: T1, phosphorylated ABL1(T315I)(229-499) (Homo sapiens, UniProt P00519, T315I); assay: SPR binding to phosphorylated ABL1(T315I)(229-499); conditions: Ni-NTA capture of 10xHis-tag
T1 construct: The protocol was adapted to generate phosphorylated 10×His-tev-ABL1(T315I)(229-499) for use in the SPR studies; made in house; host or cells: E. coli; autophosphorylated in vitro with ATP/MgCl2
T1 sequence (P00519 229-499 T315I): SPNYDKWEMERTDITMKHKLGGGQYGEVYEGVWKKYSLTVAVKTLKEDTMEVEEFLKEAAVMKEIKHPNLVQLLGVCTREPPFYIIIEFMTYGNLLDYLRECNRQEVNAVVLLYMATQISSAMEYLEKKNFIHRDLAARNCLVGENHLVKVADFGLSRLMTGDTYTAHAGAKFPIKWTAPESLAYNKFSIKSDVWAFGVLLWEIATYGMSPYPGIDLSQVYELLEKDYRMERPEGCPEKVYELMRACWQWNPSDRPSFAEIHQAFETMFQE

SMILES: Nc1nc(N)c(N=O)c(OCC2CCCCC2)n1 [A-0001, 6-Cyclohexylmethyloxy-5-nitroso-pyrimidine-2,4-diamine]
- GI50 (human tumor cells): 10 µM
- Kd ([1]; HBST buffer, read-out: Phosphorylated ABL1(T315I)(229-499) in HBST buffer KD): 13 µM
- Kd ([1]; PBST buffer, read-out: Phosphorylated ABL1(T315I)(229-499) in PBST buffer KD): 16 µM

Reference: US20240165113A1, “METHODS OF TREATMENT FOR LEUKEMIA” (DNA SEQ 2, Inc., priority 2021, published 2024)
